In patent US9302999B2, “Substituted triazoles as herbicides” (E. I. DU PONT DE NEMOURS AND COMPANY, priority 2012, dated 2016):

Columns and labels:
Assay type in all cases: in vivo
[1] = tested on: sedge, umbrella (small-flower umbrella sedge, Cyperus difformis); experiment: Test C flooded paddy test: sedge, umbrella; conditions: scale 0 to 100 (0 no effect, 100 complete control)
Summary of the method: (§1)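 Plants at 2-leaf stage in pots flooded 3 cm above soil; compounds applied directly into the paddy water, depth maintained. Visual rating against controls after 13–15 days in greenhouse, scale 0 (no effect) to 100 (complete control).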

rice (Oryza sativa) = experiment: Test C flooded paddy test: rice; conditions: scale 0 to 100 (0 no effect, 100 complete control)
Summary of the method: as §1

[2] = tested on: barnyardgrass (Echinochloa crus-galli); experiment: Test A pre-/postemergence: barnyardgrass; conditions: for Barnyardgrass plant response rating: Postemergence; for Plant response rating, Barnyardgrass: Preemergence
Summary of the method: (§2)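 Plants in loam–sand blend were treated with test chemicals in non-phytotoxic solvent with surfactant, either as preemergence directed soil spray or postemergence at 2–10 cm, one- to two-leaf stage. After about ten days in greenhouse, injury was rated visually against untreated controls on a 0–100 scale (100 = complete control).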

[3] = tested on: foxtail, giant (giant foxtail, Setaria faberii); experiment: Test A pre-/postemergence: foxtail, giant; conditions: for Foxtail, Giant plant response rating: Postemergence; for Plant response rating, Foxtail, Giant: Preemergence
Summary of the method: as §2

[4] = tested on: crabgrass, large (large crabgrass, Digitaria sanguinalis); experiment: Test A pre-/postemergence: crabgrass, large; conditions: for Crabgrass, Large plant response rating: Postemergence; for Plant response rating, Crabgrass, Large: Preemergence
Summary of the method: as §2

[5] = tested on: barnyardgrass (Echinochloa crus-galli); experiment: Test C flooded paddy test: barnyardgrass; conditions: scale 0 to 100 (0 no effect, 100 complete control)
Summary of the method: as §1

[6] = tested on: morningglory (Ipomoea spp.); experiment: Test A pre-/postemergence: morningglory; conditions: for Morningglory plant response rating: Postemergence; for Plant response rating, Morningglory: Preemergence
Summary of the method: as §2

[7] = tested on: velvetleaf (Abutilon theophrasti); experiment: Test A pre-/postemergence: velvetleaf; conditions: for Velvetleaf plant response rating: Postemergence; for Plant response rating, Velvetleaf: Preemergence
Summary of the method: as §2

[8] = tested on: ducksalad (Heteranthera limosa); experiment: Test C flooded paddy test: ducksalad; conditions: scale 0 to 100 (0 no effect, 100 complete control)
Summary of the method: as §1

[9] = tested on: wheat (Triticum aestivum); experiment: Test A pre-/postemergence: wheat; conditions: for Wheat plant response rating: Postemergence; for Plant response rating, Wheat: Preemergence
Summary of the method: as §2

corn (Zea mays) = experiment: Test A pre-/postemergence: corn; conditions: for Corn plant response rating: Postemergence; for Plant response rating, Corn: Preemergence
Summary of the method: as §2

[10] = tested on: pigweed (Amaranthus retroflexus); experiment: Test A pre-/postemergence: pigweed; conditions: for Pigweed plant response rating: Postemergence; for Plant response rating, Pigweed: Preemergence
Summary of the method: as §2

[11] = Flood (flooded paddy test), 62 g ai/ha, visual rating after 13 to 15 days
[12] = Flood (flooded paddy test), 125 g ai/ha, visual rating after 13 to 15 days
[13] = Flood (flooded paddy test), 250 g ai/ha, visual rating after 13 to 15 days
[14] = 125 g ai/ha, 0 to 100 scale, 0 is no effect, 100 is complete control
[15] = 500 g ai/ha, visual rating on 0 to 100 scale (0 no effect, 100 complete control), approximately ten days
[16] = 125 g ai/ha, 0 to 100 scale (0 no effect, 100 complete control)
[17] = 500 g ai/ha, 0 to 100 scale, 0 is no effect, 100 is complete control

With `Cc1nn(-c2ccc(C(F)(F)F)cc2)nc1Oc1cnn(CC(F)(F)F)c1` [Compound 74] the “Plant response rating, Sedge, Umbrella” value [1, 11] was 0, the “Plant response rating, Sedge, Umbrella” value [1, 12] was 0 and the “Plant response rating, Sedge, Umbrella” value [1, 13] was 0. For the same molecule, the “Plant response rating, Sedge, Umbrella” value ([1]; Flood, 31 g ai/ha) was 0, the “Plant response rating, Rice” value (rice (Oryza sativa); [11]) was 0 and the “Plant response rating, Rice” value (rice (Oryza sativa); [12]) was 0. For the same molecule, the “Plant response rating, Rice” value (rice (Oryza sativa); [13]) was 0, the “Plant response rating, Rice” value (rice (Oryza sativa); Flood, 31 g ai/ha) was 0 and the “Barnyardgrass plant response rating” value [2, 14] was 0. For the same molecule, the “Barnyardgrass plant response rating” value [2, 15] was 0, the “Plant response rating, Barnyardgrass” value [2, 16] was 0 and the “Plant response rating, Barnyardgrass” value [2, 17] was 0. For the same molecule, the “Foxtail, Giant plant response rating” value [3, 14] was 0, the “Foxtail, Giant plant response rating” value [3, 15] was 0 and the “Plant response rating, Foxtail, Giant” value [3, 16] was 0. For the same molecule, the “Plant response rating, Foxtail, Giant” value [3, 17] was 0, the “Crabgrass, Large plant response rating” value [4, 14] was 0 and the “Crabgrass, Large plant response rating” value [4, 15] was 0. The “Plant response rating, Crabgrass, Large” value [4, 16] was 0, the “Plant response rating, Crabgrass, Large” value [4, 17] was 0 and the “Plant response rating, Barnyardgrass” value [5, 11] was 0. The “Plant response rating, Barnyardgrass” value [5, 12] was 0, the “Plant response rating, Barnyardgrass” value [5, 13] was 0 and the “Plant response rating, Barnyardgrass” value ([5]; Flood, 31 g ai/ha) was 0. For the same molecule, the “Morningglory plant response rating” value [6, 14] was 0, the “Morningglory plant response rating” value [6, 15] was 0 and the “Plant response rating, Morningglory” value [6, 16] was 0. For the same molecule, the “Plant response rating, Morningglory” value [6, 17] was 0, the “Velvetleaf plant response rating” value [7, 14] was 0 and the “Velvetleaf plant response rating” value [7, 15] was 0. For the same molecule, the “Plant response rating, Velvetleaf” value [7, 16] was 0, the “Plant response rating, Velvetleaf” value [7, 17] was 0 and the “Plant response rating, Ducksalad” value [8, 11] was 0. For the same molecule, the “Plant response rating, Ducksalad” value [8, 12] was 0, the “Plant response rating, Ducksalad” value [8, 13] was 0 and the “Plant response rating, Ducksalad” value ([8]; Flood, 31 g ai/ha) was 0. The “Wheat plant response rating” value [9, 14] was 0, the “Wheat plant response rating” value [9, 15] was 0 and the “Plant response rating, Wheat” value [9, 16] was 0. The “Plant response rating, Wheat” value [9, 17] was 0, the “Corn plant response rating” value (corn (Zea mays); [14]) was 0 and the “Corn plant response rating” value (corn (Zea mays); [15]) was 0. For the same molecule, the “Plant response rating, Corn” value (corn (Zea mays); [16]) was 0, the “Plant response rating, Corn” value (corn (Zea mays); [17]) was 0 and the “Pigweed plant response rating” value [10, 14] was 0. The “Pigweed plant response rating” value [10, 15] was 0, the “Plant response rating, Pigweed” value [10, 16] was 0 and the “Plant response rating, Pigweed” value [10, 17] was 0.
`COc1nn(-c2ccc(C(F)(F)F)cc2)nc1C(=O)c1ccnc(C(F)(F)F)c1` [Compound 75] was tested, and the “Plant response rating, Sedge, Umbrella” value [1, 11] was 0, the “Plant response rating, Sedge, Umbrella” value [1, 12] was 0 and the “Plant response rating, Sedge, Umbrella” value [1, 13] was 0. For the same molecule, the “Plant response rating, Sedge, Umbrella” value ([1]; Flood, 31 g ai/ha) was 0, the “Plant response rating, Rice” value (rice (Oryza sativa); [11]) was 0 and the “Plant response rating, Rice” value (rice (Oryza sativa); [12]) was 0. The “Plant response rating, Rice” value (rice (Oryza sativa); [13]) was 0, the “Plant response rating, Rice” value (rice (Oryza sativa); Flood, 31 g ai/ha) was 0 and the “Barnyardgrass plant response rating” value [2, 14] was 0. The “Barnyardgrass plant response rating” value [2, 15] was 10, the “Plant response rating, Barnyardgrass” value [2, 16] was 10 and the “Plant response rating, Barnyardgrass” value [2, 17] was 20. The “Foxtail, Giant plant response rating” value [3, 14] was 10, the “Foxtail, Giant plant response rating” value [3, 15] was 20 and the “Plant response rating, Foxtail, Giant” value [3, 16] was 50. The “Plant response rating, Foxtail, Giant” value [3, 17] was 90, the “Crabgrass, Large plant response rating” value [4, 14] was 10 and the “Crabgrass, Large plant response rating” value [4, 15] was 20. The “Plant response rating, Crabgrass, Large” value [4, 16] was 20, the “Plant response rating, Crabgrass, Large” value [4, 17] was 70 and the “Plant response rating, Barnyardgrass” value [5, 11] was 0. For the same molecule, the “Plant response rating, Barnyardgrass” value [5, 12] was 0, the “Plant response rating, Barnyardgrass” value [5, 13] was 0 and the “Plant response rating, Barnyardgrass” value ([5]; Flood, 31 g ai/ha) was 0. The “Morningglory plant response rating” value [6, 14] was 0, the “Morningglory plant response rating” value [6, 15] was 30 and the “Velvetleaf plant response rating” value [7, 14] was 10. For the same molecule, the “Velvetleaf plant response rating” value [7, 15] was 10, the “Plant response rating, Velvetleaf” value [7, 16] was 0 and the “Plant response rating, Velvetleaf” value [7, 17] was 0. For the same molecule, the “Plant response rating, Ducksalad” value [8, 11] was 0, the “Plant response rating, Ducksalad” value [8, 12] was 0 and the “Plant response rating, Ducksalad” value [8, 13] was 0. The “Plant response rating, Ducksalad” value ([8]; Flood, 31 g ai/ha) was 0, the “Wheat plant response rating” value [9, 14] was 0 and the “Wheat plant response rating” value [9, 15] was 0. For the same molecule, the “Plant response rating, Wheat” value [9, 16] was 0, the “Plant response rating, Wheat” value [9, 17] was 10 and the “Corn plant response rating” value (corn (Zea mays); [14]) was 0. The “Corn plant response rating” value (corn (Zea mays); [15]) was 10, the “Plant response rating, Corn” value (corn (Zea mays); [16]) was 0 and the “Plant response rating, Corn” value (corn (Zea mays); [17]) was 0. For the same molecule, the “Pigweed plant response rating” value [10, 14] was 30, the “Pigweed plant response rating” value [10, 15] was 60 and the “Plant response rating, Pigweed” value [10, 16] was 30. For the same molecule, the “Plant response rating, Pigweed” value [10, 17] was 40.
